Reference: ChEMBL document CHEMBL5465560, “Selectivity Literature for EUbOPEN Chemogenomic Library” (2024)

Assays:
[1] = target: T1, Megakaryocyte-associated tyrosine-protein kinase (Homo sapiens) (UniProt P42679); assay: Selectivity interaction (KinomeScan (DiscoverX)) EUB0000092b MATK; settings: at 10 µM
T1 sequence (whole entry): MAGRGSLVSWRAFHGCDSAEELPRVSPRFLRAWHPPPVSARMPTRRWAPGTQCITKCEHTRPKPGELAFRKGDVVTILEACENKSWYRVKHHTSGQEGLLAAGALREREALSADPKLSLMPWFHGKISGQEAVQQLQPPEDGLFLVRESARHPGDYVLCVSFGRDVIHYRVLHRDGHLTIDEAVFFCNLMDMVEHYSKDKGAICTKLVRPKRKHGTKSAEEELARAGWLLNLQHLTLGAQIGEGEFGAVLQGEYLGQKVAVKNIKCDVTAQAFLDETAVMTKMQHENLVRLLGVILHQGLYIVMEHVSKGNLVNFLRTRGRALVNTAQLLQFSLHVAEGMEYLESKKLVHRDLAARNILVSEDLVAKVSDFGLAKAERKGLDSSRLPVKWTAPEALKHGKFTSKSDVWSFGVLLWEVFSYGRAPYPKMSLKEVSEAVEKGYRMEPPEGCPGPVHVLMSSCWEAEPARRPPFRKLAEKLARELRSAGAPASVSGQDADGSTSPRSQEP

[2] = target: T2, Dual specificity tyrosine-phosphorylation-regulated kinase 3 (Homo sapiens) (UniProt O43781); assay: Selectivity interaction (ProQinase) EUB0000171b DYRK3
T2 sequence (whole entry): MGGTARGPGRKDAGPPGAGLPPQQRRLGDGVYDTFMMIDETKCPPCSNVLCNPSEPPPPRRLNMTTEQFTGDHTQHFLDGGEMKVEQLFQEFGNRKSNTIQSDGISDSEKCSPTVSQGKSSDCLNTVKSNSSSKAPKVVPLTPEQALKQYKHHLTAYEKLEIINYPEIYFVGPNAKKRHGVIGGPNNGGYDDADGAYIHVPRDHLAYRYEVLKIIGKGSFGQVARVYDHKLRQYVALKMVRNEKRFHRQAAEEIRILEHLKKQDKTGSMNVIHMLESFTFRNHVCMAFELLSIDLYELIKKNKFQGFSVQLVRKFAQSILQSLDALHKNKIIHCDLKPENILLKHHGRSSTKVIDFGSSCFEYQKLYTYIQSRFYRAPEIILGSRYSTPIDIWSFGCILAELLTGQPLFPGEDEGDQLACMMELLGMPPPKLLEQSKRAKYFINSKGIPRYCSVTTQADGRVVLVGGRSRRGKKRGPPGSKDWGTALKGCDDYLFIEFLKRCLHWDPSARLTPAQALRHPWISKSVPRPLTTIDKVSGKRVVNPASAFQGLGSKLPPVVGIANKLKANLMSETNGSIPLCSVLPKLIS

[3] = target: T3, Ephrin type-A receptor 1 (Homo sapiens) (UniProt P21709); assay: Selectivity interaction (KinomeScan (DiscoverX)) EUB0001079a EPHA1; settings: at 1 µM
T3 sequence (whole entry): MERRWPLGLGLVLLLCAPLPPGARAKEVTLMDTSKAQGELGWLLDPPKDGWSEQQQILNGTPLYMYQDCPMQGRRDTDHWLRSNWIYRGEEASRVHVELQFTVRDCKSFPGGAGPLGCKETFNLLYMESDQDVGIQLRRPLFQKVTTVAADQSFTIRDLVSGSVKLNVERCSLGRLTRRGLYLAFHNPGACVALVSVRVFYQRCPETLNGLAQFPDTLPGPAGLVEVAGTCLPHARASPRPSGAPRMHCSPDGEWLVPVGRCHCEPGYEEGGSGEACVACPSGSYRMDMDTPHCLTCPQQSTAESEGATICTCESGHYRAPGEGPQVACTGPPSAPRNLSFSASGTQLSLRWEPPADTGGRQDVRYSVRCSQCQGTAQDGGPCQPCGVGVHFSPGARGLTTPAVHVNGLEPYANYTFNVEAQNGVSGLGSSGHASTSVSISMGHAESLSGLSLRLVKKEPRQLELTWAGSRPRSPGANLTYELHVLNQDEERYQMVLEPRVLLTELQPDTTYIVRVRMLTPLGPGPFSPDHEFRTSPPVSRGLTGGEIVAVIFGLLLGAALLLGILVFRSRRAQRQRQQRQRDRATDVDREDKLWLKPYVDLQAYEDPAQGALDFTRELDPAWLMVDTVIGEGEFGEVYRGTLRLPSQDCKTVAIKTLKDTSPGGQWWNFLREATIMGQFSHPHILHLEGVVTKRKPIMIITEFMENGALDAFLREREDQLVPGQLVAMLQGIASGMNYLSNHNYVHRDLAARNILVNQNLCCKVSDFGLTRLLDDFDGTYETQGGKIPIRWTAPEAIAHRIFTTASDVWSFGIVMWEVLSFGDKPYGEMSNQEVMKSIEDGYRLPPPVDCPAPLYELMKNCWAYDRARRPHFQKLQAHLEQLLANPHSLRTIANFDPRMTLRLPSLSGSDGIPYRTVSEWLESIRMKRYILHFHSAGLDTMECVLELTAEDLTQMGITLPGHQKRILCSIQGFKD

## CCC(=O)N1CCN(c2ccc(-n3c(=O)ccc4cnc5ccc(-c6cnc7ccccc7c6)cc5c43)cc2C(F)(F)F)CC1
[1]
  % of control: 97%

## C=CC(=O)Nc1cccc(C(=O)Nc2ccc(Nc3cc(-c4[nH]c(SC)nc4C)ccn3)cc2)c1
[2]; at 1 µM
  % of control: 82%
[2]; at 5 µM
  % of control: 39%

## Nc1cnc(N2CCc3cc(S(=O)(=O)Nc4c(F)cc(Cl)cc4F)cc(N4CCCC4=O)c32)nc1 [TP-020n]
[3]
  % of control: 99%
